From patent US9271960B2, “Tetrahydrocarbazoles as active agents for inhibiting VEGF production by translational control” (PTC Therapeutics, Inc., priority 2004, dated 2016)
Counter-ions that a name gives are not always drawn. Like-named read-outs stand apart in the source and are kept apart here. One block for each compound: values may come before it.

Test system: VEGF
Assay: Hypoxia-inducible endogenous VEGF expression ELISA in HeLa cells
Type: cell-based
Settings: Homo sapiens, HeLa, VEGF protein by ELISA
Procedure, shortened: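 HeLa cells held 24–48 h in hypoxia (1% O2) with a concentration series of compound; VEGF secreted into media quantified by ELISA against a standard curve. Parallel Cell Titer Glo viability under identical conditions gives CC50; EC50 from percent-inhibition curves.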

[1] = compounds 1-155, hypoxic conditions (1% O2), read-out: ELISA Activity
[2] = compounds 191-239, hypoxic conditions, read-out: ELISA Activity EC50
[3] = purchased compounds 156-188, hypoxic conditions, read-out: ELISA Activity
[4] = purchased compounds 156-188, hypoxic conditions, read-out: ELISA EC50

EC50 [2]: 10 to 40 nM
SMILES: COCCN(CCOC)CC(O)COc1ccc(C2CCCc3c2[nH]c2ccc(Cl)cc32)cc1 (stereo not shown) [Compound 216]

EC50 [3]: > 1000 nM
EC50 [4]: 2170 nM
SMILES: S=C(Nc1ccccc1)N1CCn2c3c(c4cc(C5CCCCC5)ccc42)CCCC31 (stereo not shown) [Compound 164, 8-Cyclohexyl-1,2,3a,4,5,6-hexahydro-pyrazino[3,2,1-jk]carbazole-3-carbothioic acid phenylamide]

EC50 [2]: 10 to 40 nM
SMILES: COCCN(CCCOc1ccc(C2CCCc3c2[nH]c2ccc(Br)cc32)cc1)CCOC (stereo not shown) [Compound 205]

EC50 [3]: > 1000 nM
EC50 [4]: > 10000 nM
SMILES: Cc1ccc2c(c1)c1c3n2CCCNC3CCC1 (stereo not shown) [Compound 173, 11-Methyl-1,2,3,3a,4,5,6,7-octahydro-[1,4]diazepino[3,2,1-jk]carbazole]

EC50 [2]: < 10 nM
SMILES: OC(COc1ccc(C2CCCCc3c2[nH]c2ccc(Cl)cc32)cc1)Cn1ccnc1 (stereo not shown) [Compound 231]

EC50 [3]: > 1000 nM
EC50 [4]: > 10000 nM
SMILES: CCNC1CCCc2c1[nH]c1ccc(C)cc21 (stereo not shown) [Compound 185, Ethyl-(6-methyl-2,3,4,9-tetrahydro-1H-carbazol-1-yl)-amine]

EC50 [1]: 10 to 40 nM
SMILES: COc1ccc(C(=O)NC2CCCc3c2[nH]c2ccc(Cl)cc32)cc1 (stereo not shown) [Compound 145, N-(6-Chloro-2,3,4,9-tetrahydro-1H-carbazol-1-yl)-4-methoxy-benzamide]

EC50 [3]: > 1000 nM
EC50 [4]: 5200 nM
SMILES: COC(CNC1CCCc2c1[nH]c1ccc(C)cc21)OC (stereo not shown) [Compound 165, (2,2-Dimethoxy-ethyl)-(6-methyl-2,3,4,9-tetrahydro-1H-carbazol-1-yl)-amine]

EC50 [2]: < 10 nM
SMILES: Oc1ccc(C2CCCCc3c2[nH]c2ccc(Cl)cc32)cc1 (stereo not shown) [Compound 230]

EC50 [2]: < 10 nM
SMILES: COCCN(CCOC)CC(O)COc1ccc(C2CCCCc3c2[nH]c2ccc(Cl)cc32)cc1 (stereo not shown) [Compound 234]

EC50 [3]: < 10 nM
EC50 [4]: 10 nM
SMILES: Brc1ccc2[nH]c3c(c2c1)CCCC3n1cccc1 (stereo not shown) [Compound 156, 6-Bromo-1-pyrrol-1-yl-2,3,4,9-tetrahydro-1H-carbazole]

EC50 [3]: > 1000 nM
EC50 [4]: > 10000 nM
SMILES: CC(=O)N1CCn2c3c(c4cc(C(=O)O)ccc42)CCCC31 (stereo not shown) [Compound 184, 3-Acetyl-2.3,3a,4,5,6-hexahydro-1H-pyrazino[3,2,1-jk]carbazole-8-carboxylic acid]

EC50 [1]: 40 to 200 nM
SMILES: O=C(NC1CCCc2c1[nH]c1ccc(Br)cc21)C1CC1 (stereo not shown) [Compound 147, Cyclopropanecarboxylic acid (6-bromo-2,3,4,9-tetrahydro-1H-carbazol-1-yl)-amide]

EC50 [2]: 10 to 40 nM
SMILES: COCCN(C)CC(O)COc1ccc(C2CCCc3c2[nH]c2ccc(Cl)cc32)cc1 (stereo not shown) [Compound 218]

EC50 [2]: < 10 nM
SMILES: Brc1ccc2[nH]c3c(c2c1)CCCC3c1ccc(OCCCN2CCSCC2)cc1 (stereo not shown) [Compound 206]

EC50 [3]: > 1000 nM
EC50 [4]: > 10000 nM
SMILES: CC(=O)Nc1ccc(CN2CCCn3c4c(c5cc(C)ccc53)CCCC42)cc1 (stereo not shown) [Compound 181, N-[4-(11-Methyl-1,2,3,3a,6,7-hexahydro-5H-[1,4]diazepino[3,2,1-jk]carbazol-4-ylmethyl)-phenyl]-acetamide]

EC50 [2]: < 10 nM
SMILES: OC(COc1ccc(C2CCCc3c2[nH]c2ccc(Br)cc32)cc1)CN1CCSCC1 (stereo not shown) [Compound 199]

EC50 [2]: 40 to 200 nM
SMILES: Oc1ccc(C2CCCc3c2[nH]c2ccc(Cl)cc32)cc1 (stereo not shown) [Compound 223]

EC50 [2]: 10 to 40 nM
SMILES: CN1CCN(CC(O)COc2ccc(C3CCCc4c3[nH]c3ccc(Cl)cc43)cc2)CC1 (stereo not shown) [Compound 219]

EC50 [2]: 40 to 200 nM
SMILES: CN1CCN(CCCOc2ccc(C3CCCc4c3[nH]c3ccc(Br)cc43)cc2)CC1 (stereo not shown) [Compound 208]

EC50 [1]: 10 to 40 nM
SMILES: O=C(NC1CCCc2c1[nH]c1ccc(Br)cc21)c1ccno1 (stereo not shown) [Compound 150, isoxazole-5-carboxylic acid (6-bromo-2,3,4,9-tetrahydro-1H-carbazol-1-yl)-amide]

EC50 [2]: 10 to 40 nM
SMILES: OC(COc1ccc(C2CCCCc3c2[nH]c2ccc(Cl)cc32)cc1)Cn1cncn1 (stereo not shown) [Compound 235]

EC50 [2]: 10 to 40 nM
SMILES: OC(COc1ccc(C2CCCc3c2[nH]c2ccc(Cl)cc32)cc1)Cn1ccnn1 (stereo not shown) [Compound 221]

EC50 [2]: < 10 nM
SMILES: Brc1ccc2[nH]c3c(c2c1)CCCC3c1ccc(OCCCN2CCOCC2)cc1 (stereo not shown) [Compound 210]

EC50 [3]: > 1000 nM
EC50 [4]: > 10000 nM
SMILES: Cc1ccc2c(c1)c1c3n2CCNC3CCC1 (stereo not shown) [Compound 169, 8-Methyl-2,3,3a,4,5,6-hexahydro-1H-pyrazino[3,2,1-jk]carbazole hydrochloride]

EC50 [2]: < 10 nM
SMILES: CC(=O)N1CCN(CC(O)COc2ccc(C3CCCc4c3[nH]c3ccc(Br)cc43)cc2)CC1 (stereo not shown) [Compound 197]

Further lines, the compound ahead of its results:

SMILES: O=C1CCCc2c1[nH]c1ccc(OC(F)(F)F)cc21 [Compound 73, 6-Trifluoromethoxy-2,3,4,9-tetrahydro-carbazol-1-one]
EC50 [1]: 200 to 1000 nM

SMILES: O=C(NC1CCCc2c1[nH]c1ccc(Br)cc21)c1ccco1 (stereo not shown) [Compound 123, Furan-2-carboxylic acid (6-bromo-2,3,4,9-tetrahydro-1H-carbazol-1-yl)-amide]
EC50 [1]: 10 to 40 nM

SMILES: CC1CCc2c(n(C)c3ccc(Br)cc23)C1=O (stereo not shown) [Compound 53, 6-Bromo-2,9-dimethyl-2,3,4,9-tetrahydro-carbazol-1-one]
EC50 [1]: 40 to 200 nM

SMILES: COc1ccc2[nH]c3c(c2c1)CCCC3N (stereo not shown) [Compound 95, 6-Methoxy-2,3,9-tetrahydro-1H-carbazol-1-ylamine]
EC50 [1]: > 1000 nM

SMILES: COc1cccc(CNC2CCCc3c2[nH]c2ccc(Br)cc32)c1OC (stereo not shown) [Compound 55, (6-Bromo-2,3,4,9-tetrahydro-1H-carbazol-1-yl)-(2,3-dimethoxy-benzyl)-amine]
EC50 [1]: 40 to 200 nM

SMILES: O=C(NC1CCCc2c1[nH]c1ccc(Br)cc21)c1cnccn1 (stereo not shown) [Compound 74, Pyrazine-2-carboxylic acid (6-bromo-2,3,4,9-tetrahydro-1H-carbazol-1-yl)-amide]
EC50 [1]: < 10 nM

SMILES: O=C(Nc1ccccc1)C1CCCc2c1[nH]c1ccc(Br)cc21 (stereo not shown) [Compound 91, 6-Bromo-2,3,4,9-tetrahydro-1H-carbazole-1-carboxylic acid phenylamide]
EC50 [1]: > 1000 nM

SMILES: Brc1ccc2[nH]c3c(c2c1)CCCC3Nc1ccccc1 (stereo not shown) [Compound 2, (6-Bromo-2,3,4,9-tetrahydro-1H-carbazol-1-yl)-phenyl-amine]
EC50 [1]: < 10 nM

SMILES: Cc1nnc(C2CCCc3c2[nH]c2ccc(Br)cc32)o1 (stereo not shown) [Compound 100, 6-Bromo-1-(5-methyl-[1,3,4]oxadiazol-2-yl)-2,3,4,9-tetrahydro-1H-carbazole]
EC50 [1]: > 1000 nM

SMILES: COc1ccc2[nH]c3c(c2c1)CCC/C3=N\O [Compound 84, 6-Methoxy-2,3,4,9-tetrahydro-carbazol-1 one oxime]
EC50 [1]: > 1000 nM

SMILES: COC(=O)c1ccn(C2CCCc3c2[nH]c2ccc(Br)cc32)c1 (stereo not shown) [Compound 26, 1-(6-Bromo-2,3,4,9-tetrahydro-1H-carbazol-1-yl)-1H-pyrrole-3-carboxylic acid methyl ester]
EC50 [1]: 10 to 40 nM

SMILES: N#Cc1ccc(NC2CCCc3c2[nH]c2ccc(Br)cc32)cc1 (stereo not shown) [Compound 44, 4-(6-Bromo-2,3,4,9-tetrahydro-1H-carbazol-1-ylamino)-benzonitrile]
EC50 [1]: 40 to 200 nM

SMILES: Brc1ccc2[nH]c3c(c2c1)CCCC3Nc1ccc(-c2ccccc2)cc1 (stereo not shown) [Compound 28, Biphenyl-4-yl-(6-bromo-2,3,4,9-tetrahydro-1H-carbazol-1-yl)-amine]
EC50 [1]: 10 to 40 nM

SMILES: CC(=O)n1c2c(c3cc(Br)ccc31)CCCC2n1cccc1 (stereo not shown) [Compound 13, 1-(6-Bromo-1-pyrrol-1-yl-1,2,3,4-tetrahydro-carbazol-9-yl)ethanone]
EC50 [1]: < 10 nM

SMILES: Fc1cccc(NC2CCCc3c2[nH]c2ccc(Br)cc32)c1F (stereo not shown) [Compound 32, (6-Bromo-2,3,4,9-tetrahydro-1H-carbazol-1-yl)-(2,3-difluoro-phenyl)-amine]
EC50 [1]: 10 to 40 nM

SMILES: Brc1ccc2[nH]c3c(c2c1)CCCC3NCC1CCCCC1 (stereo not shown) [Compound 67, (6-Bromo-2,3,4,9-tetrahydro-1H-carbazol-1-yl)-cyclohexylmethyl-amine]
EC50 [1]: 200 to 1000 nM

SMILES: Brc1ccc2[nH]c3c(c2c1)CCc1cnn(-c2ccccc2)c1-3 [Compound 109, 7-Bromo-1-phenyl-1,4,5,10-tetrahydro-1,2,10-triaza-cyclopenta[a]fluorine]
EC50 [1]: > 1000 nM

SMILES: O/N=C1\CCCc2c1[nH]c1cc(Br)ccc21 [Compound 92, 7-Bromo-2,3,4,9-tetrahydro-carbazol-1-one oxime]
EC50 [1]: > 1000 nM

SMILES: O=C1CCCc2c1[nH]c1ccc(Cl)cc21 [Compound 76, 6-Chloro-2,3,4,9-tetrahydro-carbazol-1-one]
EC50 [1]: > 1000 nM

SMILES: O=C1CCCc2c1[nH]c1c(Br)cccc21 [Compound 97, 8-Bromo-2,3,4,9-tetrahydro-carbazol-1-one]
EC50 [1]: > 1000 nM

SMILES: O=C(NC1CCCc2c1[nH]c1ccc(Br)cc21)c1ccccc1 (stereo not shown) [Compound 21, N-(6-Bromo-2,3,4,9-tetrahydro-1H-carbazol-1-yl)-benzamide]
EC50 [1]: < 10 nM

SMILES: Brc1ccc2[nH]c3c(c2c1)CCCC3NCc1ccc2c(c1)OCO2 (stereo not shown) [Compound 62, Benzo[1,3]dioxo-5-ylmethyl-(6-bromo-2,3,4,9-tetrahydro-1H-carbazol-1-yl)-amine]
EC50 [1]: 200 to 1000 nM

SMILES: O=C(NC1CCCc2c1[nH]c1ccc(Br)cc21)c1cccc(Cl)c1 (stereo not shown) [Compound 22, N-(6-Bromo-2,3,4,9-tetrahydro-1H-carbazol-1-yl)-3-chloro-benzamide]
EC50 [1]: < 10 nM

SMILES: O/N=C1\CCCc2c1[nH]c1ccc(Cl)cc21 [Compound 93]
EC50 [1]: > 1000 nM

SMILES: c1ccc2c3c([nH]c2c1)C(Nn1cccc1)CCC3 (stereo not shown) [Compound 101, Pyrrol-1-yl-(2,3,4,9-tetrahydro-1H-carbazol-1-yl)-amine]
EC50 [1]: > 1000 nM

SMILES: Brc1ccc2[nH]c3c(c2c1)CCCC3N1CCCC1 (stereo not shown) [Compound 116, 6-Bromo-1-pyrrolidin-1-yl-2,3,4,9-tetrahydro-1H-carbazole]
EC50 [1]: > 1000 nM

SMILES: Brc1ccc2[nH]c3c(c2c1)CCCC3c1nnc(-c2ccccc2)o1 (stereo not shown) [Compound 111, 6-Bromo-1-(5-phenyl-[1,3,4]oxadiazol-2-yl)-2,3,4,9-tetrahydro-1H-carbazole]
EC50 [1]: > 1000 nM
